Reference: patent publication EP2762573A1, “In vitro method for determining cholestatic properties of a compound” (priority 2013, dated 2014)

Tests used:
Details in all cases: male, C57BL/6, mouse
[1] = tested on: ABCG5; assay: Biomarkers validation by q-pcr in precision cut liver slices: ABCG5 expression
Description: (§1) 23-weeks old male C57BL/6 mice were obtained from Harlan (Horst, The Netherlands). Animals were kept for 1 week at a housing temperature of 22°C and at a relative humidity of 30-70%. The lighting cycle was 12-h light and 12-h dark. At the age of 24 weeks animals were sacrificed by an overdose of isoflurane. The treatment protocol was approved by the Ethical Committee for Animal Experiments at Wageningen University.
(§2) Immediately after the animals were killed the liver was perfused with PBS and placed in ice-cold Krebs-Henseleit buffer (KHB) (pH 7.4, supplemented with 11 mM glucose). Liver tissue was transported to the laboratory within approximately 30 min and cylindrical liver cores were produced using a surgical biopsy punch with diameter of 5 mm (KAI, SynErgo Europe, Romania). Liver cores were placed in a Krumdieck tissue slicer (Alabama Research and Development, Munford, AL) filled with ice-cold KHB aerated with carbogen and supplemented with 11 mM glucose. Precesion cut liver slices (PCLS) with a diameter of 5 mm, a thickness of 0.2 mm and a weight of approximately 10 mg were prepared. Immediately after preparation, slices were transferred into culture plates filled with pre-warmed (37 degrees C) Williams E medium (WEM). Three liver slices were pre-cultured in one well of the 6-well plate filled with 4 ml of WEM for one hour with continuous shaking (70 rpm). Incubations were performed in an oxygen controlled incubator (Galaxy 48 R New Brunswick, Nijmegen, the Netherlands) at 80% of oxygen; 5% CO2 and the remaining gas volume was filled up to […] with N2. After one hour of pre-incubation, media were removed and replaced with fresh media containing test compounds or appropriate solvents. After incubations, samples were snap-frozen in liquid nitrogen and stored in -80 °C for further analysis. Samples dedicated to histology were stored in 4 % formaldehyde at room temperature.
(§3) PCLS were incubated at the same conditions as described above. Slices were exposed for 24 and 48 hours to one concentration of the tested compounds or controls. Concentrations used in the exposure experiments were preselected in the dose selection experiments for each drug individually. […] For the necrotic compounds: 1000 uM acetaminophen, 5 µM paraquat and 1000 uM isoniazid. Liver slices obtained from five mice were used in five toxic compound or control exposure experiments performed at the same time. Dose selection experiments and exposure experiments were performed at different days. Therefore, ATP, LDH, and protein assays were performed again for the exposure experiments to confirm that the selected doses did also not affect slice viability in these experiments.
(§4) In further studies, expression of ten candidate biomarkers in PCLS was analyzed by q-pcr using the Biorad CFX96 TM Real-Time Detection System (Bio-Rad, Veenendaal, The Netherlands) with the following cycling conditions: 15 min 95°C followed by 40 cycles of 15s 95 °C and 1 min 60 °C. Reactions were performed in 10 µl and contained 20 ng cDNA, 1x TaqMan PCR Master Mix (Applied Biosystems, Foster City, CA), and depending on the analysed gene, 250 nM probe and 900 nM primer (for actin b) or 1xTaqMan gene expression assay (for the remaining genes) (Applied Biosystems, foster City, CA).

[2] = tested on: Myo1e; assay: Biomarkers validation by q-pcr in precision cut liver slices: Myo1e expression
Description: as §1, §2, §3, §4

[3] = tested on: Mras; assay: Biomarkers validation by q-pcr in precision cut liver slices: Mras expression
Description: as §1, §2, §3, §4

[4] = tested on: Bcl2l11; assay: Biomarkers validation by q-pcr in precision cut liver slices: Bcl2l11 expression
Description: as §1, §2, §3, §4

[5] = tested on: Parp16; assay: Biomarkers validation by q-pcr in precision cut liver slices: Parp16 expression
Description: as §1, §2, §3, §4

[6] = tested on: BAAT; assay: Biomarkers validation by q-pcr in precision cut liver slices: BAAT expression
Description: as §1, §2, §3, §4

[7] = tested on: ABCG8; assay: Biomarkers validation by q-pcr in precision cut liver slices: ABCG8 expression
Description: as §1, §2, §3, §4

[8] = tested on: KLF15; assay: Biomarkers validation by q-pcr in precision cut liver slices: KLF15 expression
Description: as §1, §2, §3, §4

[9] = tested on: PCLS; assay: Cytotoxicity analysis - dose selection experiments (LDH, ATP, protein assay)
Description: as §1, §2, §3

[10] = tested on: Nme6; assay: Biomarkers validation by q-pcr in precision cut liver slices: Nme6 expression
Description: as §1, §2, §3, §4

[11] = tested on: SERPINE1; assay: Biomarkers validation by q-pcr in precision cut liver slices: SERPINE1 expression
Description: as §1, §2, §3, §4

CN(C)CCCN1c2ccccc2Sc2ccc(Cl)cc21 [CPZ, chlorpromazine]
*fold change 1, gene expression level ABCG5 [1]: -4,2 | *fold change 2, gene expression level ABCG5 [1]: -2,9 | *fold change 3, gene expression level ABCG5 [1]: -6,7 | *fold change 4, gene expression level ABCG5 [1]: -3,8 | *fold change 5, gene expression level ABCG5 [1]: -1,0 | *fold change 1, gene expression level Myo 1e [2]: -1,1 | *fold change 2, gene expression level Myo 1e [2]: -1,0 | *fold change 3, gene expression level Myo 1e [2]: 1,1 | *fold change 4, gene expression level Myo 1e [2]: 1,0 | *fold change 5, gene expression level Myo 1e [2]: -1,1 | *fold change 1, gene expression level Mras [3]: 1,3 | *fold change 2, gene expression level Mras [3]: 2,0 | *fold change 3, gene expression level Mras [3]: 2,6 | *fold change 4, gene expression level Mras [3]: 1,4 | *fold change 5, gene expression level Mras [3]: 1,1 | *fold change 1, gene expression level Bcl2111 [4]: -1,2 | *fold change 2, gene expression level Bcl2111 [4]: -1,4 | *fold change 3, gene expression level Bcl2111 [4]: -1,2 | *fold change 4, gene expression level Bcl2111 [4]: -1,9 | *fold change 5, gene expression level Bcl2111 [4]: -2,3 | *fold change 1, gene expression level Parp 16 [5]: -1,1 | *fold change 2, gene expression level Parp 16 [5]: -1,4 | *fold change 3, gene expression level Parp 16 [5]: -1,1 | *fold change 4, gene expression level Parp 16 [5]: -1,4 | *fold change 5, gene expression level Parp 16 [5]: -1,0 | *fold change 1, gene expression level BAAT [6]: -2,3 | *fold change 2, gene expression level BAAT [6]: -3,3 | *fold change 3, gene expression level BAAT [6]: -8,5 | *fold change 4, gene expression level BAAT [6]: -6,4 | *fold change 5, gene expression level BAAT [6]: 1,4 | *fold change 1, gene expression level ABCG8 [7]: -2,9 | *fold change 2, gene expression level ABCG8 [7]: -2,1 | *fold change 3, gene expression level ABCG8 [7]: -5,4 | *fold change 4, gene expression level ABCG8 [7]: -4,5 | *fold change 5, gene expression level ABCG8 [7]: -1,1 | *fold change 1, gene expression level KLF15 [8]: -2,0 | *fold change 2, gene expression level KLF15 [8]: -1,8 | *fold change 3, gene expression level KLF15 [8]: -3,2 | *fold change 4, gene expression level KLF15 [8]: -1,8 | *fold change 5, gene expression level KLF15 [8]: 1,6 | highest concentration that did not cause significant increase of toxicity [9]: 10 µM | *fold change 1, gene expression level Nme6 [10]: 1,1 | *fold change 2, gene expression level Nme6 [10]: 1,3 | *fold change 3, gene expression level Nme6 [10]: 1,7 | *fold change 4, gene expression level Nme6 [10]: 1,3 | *fold change 5, gene expression level Nme6 [10]: 1,2 | *fold change 1, gene expression level SERPINE1 [11]: 2,9 | *fold change 2, gene expression level SERPINE1 [11]: -1,4 | *fold change 3, gene expression level SERPINE1 [11]: -4,7 | *fold change 4, gene expression level SERPINE1 [11]: -5,8 | *fold change 5, gene expression level SERPINE1 [11]: -1,8

NNC(=O)c1ccncc1 [ISONZ, isoniazid]
*fold change 1, gene expression level ABCG5 [1]: 2,0 | *fold change 2, gene expression level ABCG5 [1]: 3,0 | *fold change 3, gene expression level ABCG5 [1]: 1,1 | *fold change 4, gene expression level ABCG5 [1]: 2,0 | *fold change 5, gene expression level ABCG5 [1]: 2,0 | *fold change 1, gene expression level Myo 1e [2]: 1,5 | *fold change 2, gene expression level Myo 1e [2]: 1,3 | *fold change 3, gene expression level Myo 1e [2]: 1,3 | *fold change 4, gene expression level Myo 1e [2]: -1,3 | *fold change 5, gene expression level Myo 1e [2]: 1,1 | *fold change 1, gene expression level Mras [3]: 1,7 | *fold change 2, gene expression level Mras [3]: -1,1 | *fold change 3, gene expression level Mras [3]: 1,3 | *fold change 4, gene expression level Mras [3]: -1,3 | *fold change 5, gene expression level Mras [3]: -1,3 | *fold change 1, gene expression level Bcl2111 [4]: 1,9 | *fold change 2, gene expression level Bcl2111 [4]: 1,7 | *fold change 3, gene expression level Bcl2111 [4]: 1,3 | *fold change 4, gene expression level Bcl2111 [4]: -1,2 | *fold change 5, gene expression level Bcl2111 [4]: -1,2 | *fold change 1, gene expression level Parp 16 [5]: -1,0 | *fold change 2, gene expression level Parp 16 [5]: -1,0 | *fold change 3, gene expression level Parp 16 [5]: 1,2 | *fold change 4, gene expression level Parp 16 [5]: -2,3 | *fold change 5, gene expression level Parp 16 [5]: -1,8 | *fold change 1, gene expression level BAAT [6]: 1,8 | *fold change 2, gene expression level BAAT [6]: 1,7 | *fold change 3, gene expression level BAAT [6]: 1,1 | *fold change 4, gene expression level BAAT [6]: -1,3 | *fold change 5, gene expression level BAAT [6]: 1,3 | *fold change 1, gene expression level ABCG8 [7]: 2,1 | *fold change 2, gene expression level ABCG8 [7]: 2,8 | *fold change 3, gene expression level ABCG8 [7]: 1,0 | *fold change 4, gene expression level ABCG8 [7]: 2,3 | *fold change 5, gene expression level ABCG8 [7]: 1,9 | *fold change 1, gene expression level KLF15 [8]: 1,2 | *fold change 2, gene expression level KLF15 [8]: 2,4 | *fold change 3, gene expression level KLF15 [8]: 1,0 | *fold change 4, gene expression level KLF15 [8]: 1,1 | *fold change 5, gene expression level KLF15 [8]: 1,2 | highest concentration that did not cause significant increase of toxicity [9]: 1000 µM | *fold change 1, gene expression level Nme6 [10]: 1,3 | *fold change 2, gene expression level Nme6 [10]: 1,2 | *fold change 3, gene expression level Nme6 [10]: 1,1 | *fold change 4, gene expression level Nme6 [10]: -1,3 | *fold change 5, gene expression level Nme6 [10]: -1,1 | *fold change 1, gene expression level SERPINE1 [11]: 5,4 | *fold change 2, gene expression level SERPINE1 [11]: 1,9 | *fold change 3, gene expression level SERPINE1 [11]: 1,4 | *fold change 4, gene expression level SERPINE1 [11]: -1,4 | *fold change 5, gene expression level SERPINE1 [11]: -2,9
